Assay results from patent publication US7704975B2, “Modafinil compound and cyclodextrin mixtures” (Cephalon, Inc., priority 2000, dated 2010).
≈ marks a conversion by molar mass, not a printed value. Where two headings read alike, the source gives them in different places.

Columns and labels:
[1] = Aqueous solubility of modafinil, alone and in HPβCD solutions; format: physicochemical; conditions: thermodynamic from solid
Method: The following HPLC method may be used to measure the modafinil compound content in the compositions. Filter a solution saturated with a modafinil compound through a 1.2 μm syringe filter. Dilute 10 μL of the clear solution to 1 mL with 990 μL of dimethylsulfoxide (Fischer Certified ACS grade). Take 10 μL of the diluted solution for the HPLC analysis, with the following representative column conditions: • Flow rate: 1.2 mL/min. • Column: ODS, 4.6×20 mm, Column Temp: 30° C. • Mobil phase: 80%(65% Acetonitrile/35%1M phosphate buffer) 20% water • Analysis time: 5 minutes • Wavelength: 222 nanometers
Concentration can be calculated by comparison to area from a modafinil compound standard used at 0.4 mg/mL with appropriate dilution.

mice = conditions: single administration; cited from earlier work
monkeys = conditions: single administration; cited from earlier work

NC(=O)C[S+]([O-])C(c1ccccc1)c1ccccc1 (stereo not drawn) [modafinil, 2-(benzhydryl-sulfinyl)acetamide] gave a solubility ([1]; aqueous with cosolvent or surfactant or cyclodextrin, 2% HPβCD solution, from 1:1 complex, read-out: amount solubilized) of ~4.4 mg/mL (≈ 16.1 mM), a solubility ([1]; aqueous with cosolvent or surfactant or cyclodextrin, 20% HPβCD solution, from 1:1 complex, read-out: amount solubilized) of ~39.5 mg/mL (≈ 144 mM) and a solubility ([1]; aqueous with cosolvent or surfactant or cyclodextrin, 40% HPβCD solution, from 1:1 complex, read-out: amount solubilized) of ~78.4 mg/mL (≈ 287 mM). The solubility ([1]; water without cyclodextrin, water, read-out: aqueous solubility) was 0.44 mg/mL (≈ 1.61 mM), the locomotor activity (mice) was “increased locomotor activity” and the nocturnal activity (monkeys) was “increased nocturnal activity”.
